From article PMC8595653, “Activation of specific bitter taste receptors by olive oil phenolics and secoiridoids” (Scientific Reports, 2021)
Entries after “also recorded” stand apart in the source; their conditions may differ. Values belong to the compound of their own block, whether it stands above or below them.

Assays:
Assay type in all cases: cell-based
[1] = system: 25 human TAS2Rs; experiment: Single dose scanning of phenolic compounds on the 25 bitter taste receptors (calcium mobilization, HEK293E); conditions: single dose 300 µM, 25 TAS2Rs, N = 2
Experimental: (§1) All constructs were confirmed by DNA sequencing.
(§2) Data from single dose experiments were collected as duplicates. […] Data represent mean ± SD.
(§3) To characterize the bitterness of olive oil phenolic compounds, we performed calcium mobilization experiments. The 25 bitter taste receptors, G protein chimera (Gα16-gus44), and the GCaMP calcium sensor[68] were transiently expressed in HEK293E cells. Twelve olive oil phenolic compounds (Fig. 1) were tested for bitter taster receptor activation (Fig. 3). […] Ligstroside aglycon, and Oleuropein aglycon activated TAS2R1, TAS2R8 and TAS2R14 receptors. To validate the single dose scanning results, we performed concentration–response experiments for all the compounds toward receptors TAS2R1, TAS2R8, and TAS2R14 that produced the most significant responses (Fig. 4).
Figure 3 Phenolic compound bitter taste activity tests on hTAS2Rs. Relative fluorescence signals caused by phenolic compound activation of the receptors and the empty vector as a negative control. The concentration of the compounds used was [300 µM], except for Ligstroside aglycon and Oleuropein aglycon [200 µM], oleuropein that was [3 mM]. The asterisks indicate significant differences tested by one-way ANOVA (***p < 0.0001) (N = 2). Data represent mean ± SD.

[2] = biological target: T1, TAS2R39 (Homo sapiens, UniProt P59534); experiment: Calcium mobilization functional assay, TAS2R39; conditions: 10 mM, versus empty pcDNA vector
T1 construct: first 45 amino acids of rat somatostatin type 3 receptor (SSTR3) export tag (N); expressed in transfected cells; host or cells: HEK293E
From the text: as §1, §2

[3] = biological target: T2, TAS2R40 (Homo sapiens, UniProt P59535); experiment: Calcium mobilization functional assay, TAS2R40; conditions: 30 µM, versus empty pcDNA vector
T2 construct: first 45 amino acids of rat somatostatin type 3 receptor (SSTR3) export tag (N); expressed in transfected cells; host or cells: HEK293E
From the text: as §1, §2

[4] = biological target: T3, TAS2R8 (Homo sapiens, UniProt Q9NYW2); experiment: Calcium mobilization functional assay, TAS2R8 co-expressed with Gα16-gust44 and GCaMP in HEK293E cells; conditions: for potency and efficacy on TAS2R8 in words: concentration-response experiments, maximal concentration 10 mM for oleuropein
T3 construct: first 45 amino acids of rat somatostatin type 3 receptor (SSTR3) export tag (N); expressed in transfected cells; host or cells: HEK293E
T3 sequence (Q9NYW2 1-309): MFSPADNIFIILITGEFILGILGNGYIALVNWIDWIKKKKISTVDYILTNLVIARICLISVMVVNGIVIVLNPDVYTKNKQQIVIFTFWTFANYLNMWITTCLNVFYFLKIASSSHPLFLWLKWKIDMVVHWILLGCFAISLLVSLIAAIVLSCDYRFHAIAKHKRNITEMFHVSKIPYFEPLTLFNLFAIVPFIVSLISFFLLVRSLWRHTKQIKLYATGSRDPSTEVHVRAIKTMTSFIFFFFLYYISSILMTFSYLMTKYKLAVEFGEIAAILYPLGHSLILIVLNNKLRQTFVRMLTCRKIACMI
Experimental: as §1, §2, §3

[5] = biological target: T4, TAS2R50 (Homo sapiens, UniProt P59544); experiment: Calcium mobilization functional assay, TAS2R50; conditions: 1 mM, versus empty pcDNA vector
T4 construct: first 45 amino acids of rat somatostatin type 3 receptor (SSTR3) export tag (N); expressed in transfected cells; host or cells: HEK293E
From the text: as §1, §2

[6] = biological target: T5, TAS2R41 (Homo sapiens, UniProt P59536); experiment: Calcium mobilization functional assay, TAS2R41; conditions: 1 mM, versus empty pcDNA vector
T5 construct: first 45 amino acids of rat somatostatin type 3 receptor (SSTR3) export tag (N); expressed in transfected cells; host or cells: HEK293E
From the text: as §1, §2

[7] = biological target: T6, TAS2R1 (Homo sapiens, UniProt Q9NYW7); experiment: Calcium mobilization functional assay, TAS2R1 co-expressed with Gα16-gust44 and GCaMP in HEK293E cells; conditions: 1 mM, versus empty pcDNA vector
T6 construct: first 45 amino acids of rat somatostatin type 3 receptor (SSTR3) export tag (N); expressed in transfected cells; host or cells: HEK293E
T6 sequence (Q9NYW7 1-299): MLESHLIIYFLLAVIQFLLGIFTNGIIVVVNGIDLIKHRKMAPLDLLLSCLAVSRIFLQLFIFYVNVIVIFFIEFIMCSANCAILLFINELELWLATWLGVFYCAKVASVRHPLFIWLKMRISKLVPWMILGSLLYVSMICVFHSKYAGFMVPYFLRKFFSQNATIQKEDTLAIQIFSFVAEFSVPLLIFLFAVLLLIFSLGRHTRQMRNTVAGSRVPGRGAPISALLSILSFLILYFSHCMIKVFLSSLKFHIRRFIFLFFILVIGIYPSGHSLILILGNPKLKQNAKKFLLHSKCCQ
Experimental: as §1, §2, §3

[8] = biological target: T7, TAS2R31 (Homo sapiens, UniProt P59538); experiment: Calcium mobilization functional assay, TAS2R31; conditions: 30 µM, versus empty pcDNA vector
T7 construct: first 45 amino acids of rat somatostatin type 3 receptor (SSTR3) export tag (N); expressed in transfected cells; host or cells: HEK293E
From the text: as §1, §2

[9] = biological target: T8, TAS2R43 (Homo sapiens, UniProt P59537); experiment: Calcium mobilization functional assay, TAS2R43; conditions: 30 µM, versus empty pcDNA vector
T8 construct: first 45 amino acids of rat somatostatin type 3 receptor (SSTR3) export tag (N); expressed in transfected cells; host or cells: HEK293E
From the text: as §1, §2

T4 sequence (P59544 whole entry): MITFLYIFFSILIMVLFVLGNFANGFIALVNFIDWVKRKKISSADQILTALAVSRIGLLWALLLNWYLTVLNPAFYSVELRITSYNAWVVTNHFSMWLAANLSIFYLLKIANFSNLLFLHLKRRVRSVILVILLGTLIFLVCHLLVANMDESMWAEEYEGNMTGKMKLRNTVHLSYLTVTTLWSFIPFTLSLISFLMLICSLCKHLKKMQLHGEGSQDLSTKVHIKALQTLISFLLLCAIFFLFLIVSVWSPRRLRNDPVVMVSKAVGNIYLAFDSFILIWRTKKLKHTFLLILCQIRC
T5 sequence (P59536 whole entry): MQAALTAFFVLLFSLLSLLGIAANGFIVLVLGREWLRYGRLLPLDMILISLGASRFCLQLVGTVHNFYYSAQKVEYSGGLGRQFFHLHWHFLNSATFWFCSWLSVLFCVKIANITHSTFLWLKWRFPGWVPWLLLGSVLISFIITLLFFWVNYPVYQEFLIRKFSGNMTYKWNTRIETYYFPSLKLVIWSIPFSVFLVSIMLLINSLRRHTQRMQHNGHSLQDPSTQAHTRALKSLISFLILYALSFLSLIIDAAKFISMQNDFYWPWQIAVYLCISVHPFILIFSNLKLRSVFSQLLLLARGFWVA
T2 sequence (P59535 whole entry): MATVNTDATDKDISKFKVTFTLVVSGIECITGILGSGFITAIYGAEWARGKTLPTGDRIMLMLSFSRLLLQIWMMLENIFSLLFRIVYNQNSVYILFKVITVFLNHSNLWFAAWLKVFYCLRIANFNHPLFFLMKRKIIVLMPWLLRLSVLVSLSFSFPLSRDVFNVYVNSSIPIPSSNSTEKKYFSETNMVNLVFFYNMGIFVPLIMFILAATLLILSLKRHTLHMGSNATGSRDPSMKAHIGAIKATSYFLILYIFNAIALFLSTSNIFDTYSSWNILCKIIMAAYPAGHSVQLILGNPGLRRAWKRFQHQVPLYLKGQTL
T7 sequence (P59538 whole entry): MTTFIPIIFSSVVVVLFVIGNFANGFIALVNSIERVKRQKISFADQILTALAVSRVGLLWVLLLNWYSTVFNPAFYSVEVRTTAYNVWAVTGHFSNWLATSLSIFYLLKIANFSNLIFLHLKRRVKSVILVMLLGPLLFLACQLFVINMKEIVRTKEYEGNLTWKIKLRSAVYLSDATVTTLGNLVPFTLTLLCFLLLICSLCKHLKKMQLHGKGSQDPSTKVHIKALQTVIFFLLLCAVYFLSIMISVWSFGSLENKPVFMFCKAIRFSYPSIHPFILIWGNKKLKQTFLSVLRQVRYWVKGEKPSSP
T1 sequence (P59534 whole entry): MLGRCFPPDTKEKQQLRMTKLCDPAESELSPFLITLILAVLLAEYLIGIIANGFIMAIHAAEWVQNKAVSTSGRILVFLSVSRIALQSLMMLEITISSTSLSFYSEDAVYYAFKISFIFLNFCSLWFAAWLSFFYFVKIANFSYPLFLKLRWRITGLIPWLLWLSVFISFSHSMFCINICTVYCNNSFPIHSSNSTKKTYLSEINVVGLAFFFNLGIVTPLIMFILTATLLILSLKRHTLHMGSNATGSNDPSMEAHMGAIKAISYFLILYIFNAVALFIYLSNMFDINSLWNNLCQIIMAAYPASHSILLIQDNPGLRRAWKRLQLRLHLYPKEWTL
T8 sequence (P59537 whole entry): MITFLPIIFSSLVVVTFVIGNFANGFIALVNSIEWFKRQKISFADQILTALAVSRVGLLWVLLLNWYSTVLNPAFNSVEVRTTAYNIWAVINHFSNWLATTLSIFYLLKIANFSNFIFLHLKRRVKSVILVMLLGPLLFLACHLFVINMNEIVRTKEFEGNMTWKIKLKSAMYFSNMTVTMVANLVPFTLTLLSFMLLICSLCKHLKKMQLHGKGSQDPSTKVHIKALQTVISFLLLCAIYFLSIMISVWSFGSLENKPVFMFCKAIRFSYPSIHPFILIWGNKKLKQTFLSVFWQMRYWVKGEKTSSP

activation of TAS2R39 [2]: activated
Structure (SMILES): CNC(=C[N+](=O)[O-])NCCSCc1ccc(CN(C)C)o1 [ranitidine]

activation of TAS2R40 [3]: activated
Structure (SMILES): CC(C)=CCC1C(=O)C(C(=O)CC(C)C)=C(O)C(O)(CC=C(C)C)C1=O (centres unmarked) [humulone]

potency lower compared to the aglycons ([4]; TAS2R8): 50 fold
activation of TAS2R8 over background ([4]; single dose 3 mM, listed as oleuropein): activated significantly
Structure (SMILES): C/C=C1/[C@H](O[C@@H]2O[C@H](CO)[C@@H](O)[C@H](O)[C@H]2O)OC=C(C(=O)OC)[C@H]1CC(=O)OCCc1ccc(O)c(O)c1 [Oleuropein, oleuropein]
potency and efficacy on TAS2R8 in words [4]: high efficacy on TAS2R8 but very low potency and did not reach saturation
activation of TAS2R8 over background ([4]; single dose 3 mM): activate; also recorded: activated TAS2R8 only

activation of TAS2R50 [5]: activated
Structure (SMILES): C=C1CC[C@@H]2[C@](C)(CO)[C@H](O)CC[C@@]2(C)[C@@H]1C/C=C1/C(=O)OC[C@H]1O [andrographolide]

activation of TAS2R41 [6]: activated
activation of TAS2R8 ([4]; 1 mM, versus empty pcDNA vector): activated
activation of TAS2R1 [7]: activated
Structure (SMILES): O=C(N[C@H](CO)[C@H](O)c1ccc([N+](=O)[O-])cc1)C(Cl)Cl [chloramphenicol, reference compound]

Continued, compound first:

Structure (SMILES): CC=C1C(OC2OC(CO)C(O)C(O)C2O)OC=C(C(=O)OC)C1CC(=O)O (centres unmarked) [Oleoside-methylester, oleoside-11-methylester]
activation of any TAS2R ([1]; listed as oleoside-11-methyl ester): failed to activate any bitter receptor
activation of any TAS2R ([1]; listed as oleoside-methylester): did not activate any TAS2Rs; also recorded: failed to activate any TAS2Rs

Structure (SMILES): C/C=C(/C=O)C(CC(=O)OCCc1ccc(O)c(O)c1)/C(=C/O)C(=O)OC (centres unmarked) [Oleomissional, oleomissional]
potency and efficacy on TAS2R8 in words [4]: activated weakly and less potently
potency and efficacy on TAS2R8 in words ([4]; listed as oleomissinal): activated TAS2R8 with lower potency
activation of TAS2R8 over background ([4]; single dose 300 µM): activate
activation of TAS2R8 over background ([4]; single dose 300 µM, listed as oleomissional): activated significantly

Structure (SMILES): C/C=C(/C=O)[C@@H](CC=O)CC(=O)OCCc1ccc(O)c(O)c1 [Oleacein, oleacein]
activation of any TAS2R [1]: did not activate any TAS2Rs; also recorded: did not show any activation of bitter receptors; also recorded: failed to activate any TAS2Rs

Structure (SMILES): OCCc1ccc(O)cc1 [Tyrosol, tyrosol]
activation of any TAS2R [1]: did not activate any TAS2Rs; also recorded: failed to activate any bitter receptor; also recorded: failed to activate any TAS2Rs

Structure (SMILES): COc1cccc2c1cc([N+](=O)[O-])c1c(C(=O)O)cc3c(c12)OCO3 [aristolochic acid]
activation of TAS2R31 [8]: activated
activation of TAS2R43 [9]: activated
